# Laboratory results taken from patent US9410956B1, “Micro-RNA profiling in ovarian cancer” (University of South Florida, priority 2008, dated 2016).
# Key:
# A2780CP cells [1] = assay: MTT cell viability assay after knockdown of miR-214; assay type: cell-based, human; details: knockdown of miR-214 alone, 150 pMol oligonucleotide per well
# Method: (§1) FIG. 4B: An image showing an MTT assay. The 2′-O-me-anti-miR-214- or scramble 2′-O-me-transfected A2780CP cells were treated with 20 uM of cisplatin or DMSO vehicle for the indicated times and examined for cell viability.
# (§2) 2′-O-methyl (2′-O-me) oligoribonucleotides were synthesized by Integrated DNA Technologies. The sequences of 2′-O-methyl-anti-miR-214 and -miR-199a* are: 5′-[…]-3′ (SEQ ID NO: 1) and 5′-[…] UGUA-3′ (SEQ ID NO: 3). 2′-O-me-scrambled miR (5′-[…]-3′) (SEQ ID NO: 15) was used as a control. Cells were grown in 6-well plate (1.7×10^6 cells/well) for 24 h and transfected with 150 pMol of 2′-O-me oligoribonucleotides per well using Lipofectamine 2000. RNA and protein were extracted after 72 h transfection.
# (§3) A2780CP cells were transfected with 2′-O-methyl-anti-miR-214. The cells transfected with 2′-O-methyl-scramble-miR were used as control. […] Further, the cells were treated with cisplatin or vehicle DMSO.
# A2780CP cells [2] = assay: Cisplatin-induced apoptosis after knockdown of miR-214 (MTT, subG1 flow cytometry); assay type: cell-based, human; details: 20 uM cisplatin
# Method: as §1
# FIG. 4C: An image showing flow cytometry. Indicated cells were treated with cisplatin or DMSO for 12 h and the subG1 population was identified by flow cytometry.
# as §3
# Akt = assay: Immunoblot of phospho-Akt and Akt substrates after knockdown of miR-214 in A2780CP cells; assay type: cell-based, human; details: 72 h
# Method: (§4) FIG. 2B: An image showing miR-214 reduces PTEN protein but not mRNA levels. HIOSE-80 cells (left panels) were transfected with pcDNA3.1/V5-His-Topo-miR-214, -miR199a* and vector alone and immunoblotted with indicated antibodies (panels 1-4). The expression of miR-214 and miR-199a* was determined by qRT-PCR (panels 5 and 6). PTEN mRNA level was measured by RT-PCR (panel 8). U6 (panel 7) and GAPDH (bottom panel) were used for controls. Middle and right panels show knockdown of miR-214 inducing PTEN expression. A2780CP cells were transfected with antisense 2′-O-methyl oligonucleotide targeting miR-214 at concentration of […] (6 well plate) with Lipofectamine 2000. Anti-miR199a* and scramble 2′-O-methyl oligonucleotide were used as controls. After incubation of 72 h, cells were lysed and immunoblotted with indicated antibodies (middle).
# as §2, with “transfection. […]” for “transfection.”
# PTEN [3] = assay: Immunoblot of PTEN protein after knockdown of miR-214 in A2780CP cells; assay type: cell-based, human; details: 72 h
# Method: as §4
# as §2, with “transfection. […]” for “transfection.”
# miR-214 = assay: qRT-PCR of miR-214 level after 2′-O-methyl oligonucleotide transfection; assay type: cell-based, human; details: A2780CP cells, 72 h after transfection
# Method: FIG. 4A: An image showing A2780CP, a cisplatin-resistant cell line and expressing elevated levels of endogenous miR-214, was transfected with 2′-O-me-anti-miR-214 or scramble 2′-O-me oligonucleotides and assayed with qRT-PCR with primers of miR-214 (top) and U6 (bottom).
# Expression of miRNAs was also analyzed by RNase protection or mirVana qRT-PCR miRNA detection assay. For RNase protection assay, enriched small RNA was purified using the miRVana miRNA Isolation Kit (Ambion). The mirVana™ miRNA probe construction kit (Ambion) was used to synthesize the ^32P-labeled miR-214 probe. Probe hybridization and RNase protection were then carried out using the mirVana™ miRNA detection kit (Ambion) according to manufacturer's instructions. After hybridization and RNase treatment, the double-strand products were resolved in a 15% polyacrylamide 8 M urea denaturing gel and visualized using phosphoimaging and autoradiography. mirVana qRT-PCR was performed according to the manufacturer's protocol (Ambion). PCR products were analyzed by electrophoresis on a 7.5% polyacrylamide gel in 0.5×TBE and visualized by ethidium bromide staining.
# 2′-O-methyl (2′-O-me) oligoribonucleotides were synthesized by Integrated DNA Technologies. The sequences of 2′-O-methyl-anti-miR-214 and -miR-199a* are: 5′-[…]-3′ (SEQ ID NO: 1) and 5′-[…] UGUA-3′ (SEQ ID NO: 3). […]
# PTEN [4] = details: ovarian cancer cell lines (Schondorf et al. 2004); cited from earlier work
# ovarian cancer = details: adjuvant chemotherapy, ovarian cancer patients (Aghajanian 2004); cited from earlier work
compound,measurement,setting,value
"5′-CUGCCUGUCUGUGCCUGCUGU-3′ (all 2'-O-methyl, backbone not given here) [2′-O-methyl-anti-miR-214, antisense 2′-O-methyl oligoribonucleotide targeting miR-214]",reduction of cell survival,A2780CP cells [1],about 20%
same,sensitization to cisplatin-induced apoptosis,A2780CP cells [2],considerably sensitized
same,phosphorylation levels of Akt and Akt substrates GSK3β and p70S6K,Akt,decreased
same,protein level of PTEN,PTEN [3],increased
same,level of miR-214,miR-214,significantly decreased
Nc1ncn([C@H]2C[C@H](O)[C@@H](CO)O2)c(=O)n1 [5-aza-2′ deoxycytidine],PTEN protein expression,PTEN [4],failed to restore
N.N.[Cl][Pt][Cl] [cisplatin],clinical response (share of patients),ovarian cancer,approximately 80%
